Reference: US20260055108A1, “TRIAZINE COMPOUNDS AND USES THEREOF” (HUTCHMED LIMITED, priority 2022, published 2026)

Legend:
[1] = system: MV-4-11 cells (human acute myelogenous leukemia cell line carrying MLL-AF4 mutation); assay: Cell proliferation assay, MV-4-11 (CellTiter-Glo); type: cell-based; details: Homo sapiens, MV4-11, 72 h, MV-4-11 cells, 3 days treatment, CellTiter-Glo; read-out: GI50
Protocol: Example 4 Cell Proliferation Assay
MV-4-11 (ATCC, CRL-9591), a human acute myelogenous leukemia cell line carrying MLL-AF4 mutation. Cells were cultured in an IMDM medium containing 10% heat-inactivated fetal bovine serum (HIFBS) and supplemented with 50 μM β-mercaptoethanol.
2. Reagents, Materials and Instruments:
• IMDM culture solution: GIBCO, 12440-053; • HIFBS: GIBCO, 10100-147; • β-mercaptoethanol: Sigma, M3148; • CellTiter-Glo® 2.0 assay kit (CTG): Promega, G9243; • DMSO: Sigma, D4540; • 96-well cell culture plate: Corning, 3903; • Envision: PerkinElmer.
MV-4-11 cells were resuspended in a medium, added to a 96-well plate at a density of 3000 cells/well with a volume of 100 μL/well, and cultured in a cell incubator at 5% CO2 and 37° C. for 4 hours. The test compound subjected to gradient dilution with the medium was added to a cell culture plate, and the final concentrations of the compound were 1.100, 0.367, 0.122, 0.041, 0.014, 0.005, 0.002 and 0.001 μM, respectively. The corresponding volume of DMSO diluent was added to a blank control well, and the final concentrations of DMSO in the experimental group and control group were both 0.1%. The cell plate was placed in a cell incubator at 5% CO2 and 37° C. and cultured for 3 days.
On day 0 and day 3 of the treatment, 50 μL/well CTG reagent was added to the cell plate and shaken at room temperature in the dark for 10 min, and then the chemiluminescence value of each well was measured with Envision.
[formula] • wherein: • luminescence valuetest sample: the chemiluminescence value of a cell well treated with the test compound for 3 days. • luminescence valueday 0: the chemiluminescence value of a cell well at day 0. • luminescence valuecell well: the chemiluminescence value of a cell well not treated with the compound for 3 days.
(§1) • calculated by using software XL-Fit™ (version 5.3) supplied by ID Business Solutions (Guildford, UK), which is an additional software to Microsoft Excel.

[2] = biological target: Recombinant human Menin protein (2-610) / MLL polypeptide binding (Homo sapiens (Human), UniProt O00255); assay: Menin and MLL protein binding at a molecular level (fluorescence polarization method); details: inhibition of Menin / MLL polypeptide binding
Source text: Example 3: Determination of the Activity of the Compounds of the Present Invention on Menin and MLL Protein Binding at a Molecular Level (Fluorescence Polarization Method)
1. Reagents, Materials and Instruments:
• Recombinant human Menin protein (2-610): ChemPartner, CP2021020801; • MLL polypeptide (6-FAM-Ahx-SG-40): GL Biochem, 865700; • Trizma® hydrochloride buffer solution (Tris): Sigma, T2194-1 L; • NaCl: Invitrogen, AM9760G; • TCEP: Sigma, 646547; • DMSO: Sigma, D4540; • 384-well plate: Corning, 4514; • Envision: PerkinElmer.
2. Preparation of Reaction Solutions
• 1) Buffer solution: 20 mL of Tris and 4 mL of NaCl were added respectively to 376 mL of ddH2O, with pH adjusted to 7.5, and TCEP was added before testing with a dilution ratio of 1:500. • 2) 5× test compounds: the test compound was subjected to gradient dilution with the buffer solution to 5-fold the reaction concentration, so that the final concentrations of the compound were 1.000, 0.333, 0.111, 0.037, 0.012, 0.004, 0.001 and 0.0005 μM, respectively. • 3) 2.5× Menin protein reaction solution: the Menin protein was diluted to 5 nM with the buffer solution. • 4) 2.5×MLL polypeptide reaction solution: the MLL polypeptide was diluted to 5 nM with the buffer solution.
1) Binding Reaction (20 μL System)
4 μL of 5× test compound was added to each reaction well of the 384-well plate, and the corresponding volume of 10% DMSO was added to the control wells. Except the control wells, 8 μL of Menin protein reaction solution was added to each well. The reaction solution was incubated at room temperature for 30 minutes, and then 8 μL of MLL polypeptide reaction solution was added to each well. The final concentrations of DMSO in the test compound wells and control wells were all 2%. The 384-well plate was sealed and incubated at room temperature for 30 minutes in the dark.
Three control groups were set up: • a blank control group only containing a buffer solution; • a negative control group only containing MLL polypeptide reaction solution; and • a positive control group containing Menin protein reaction solution and MLL polypeptide reaction solution.
The vertical polarization S value and the horizontal polarization P value (excitation wavelength was 480 nm, and emission wavelength was 535 nm) were measured with Envision.
Corrected S is the S value of the negative control group—the S value of the blank control group
Corrected P is the P value of the negative control group—the P value of the blank control group
as §1

Chain of Recombinant human Menin protein (2-610) / MLL polypeptide binding (O00255 2-610): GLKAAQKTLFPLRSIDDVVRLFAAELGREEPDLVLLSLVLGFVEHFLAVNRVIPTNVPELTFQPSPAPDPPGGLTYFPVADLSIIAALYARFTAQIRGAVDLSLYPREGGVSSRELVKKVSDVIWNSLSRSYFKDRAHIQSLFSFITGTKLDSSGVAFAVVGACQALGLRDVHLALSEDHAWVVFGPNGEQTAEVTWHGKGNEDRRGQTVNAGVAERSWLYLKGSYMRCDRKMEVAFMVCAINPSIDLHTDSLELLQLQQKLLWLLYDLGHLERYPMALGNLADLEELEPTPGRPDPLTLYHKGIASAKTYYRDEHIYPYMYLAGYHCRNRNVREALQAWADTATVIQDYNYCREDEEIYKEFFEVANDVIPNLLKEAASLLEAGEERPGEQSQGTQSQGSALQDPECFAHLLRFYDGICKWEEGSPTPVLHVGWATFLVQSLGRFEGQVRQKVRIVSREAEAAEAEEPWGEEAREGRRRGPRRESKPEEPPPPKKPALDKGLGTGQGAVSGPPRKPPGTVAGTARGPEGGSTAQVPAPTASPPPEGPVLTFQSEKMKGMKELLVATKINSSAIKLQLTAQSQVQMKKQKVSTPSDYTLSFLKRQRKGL

## CCN(C(=O)c1cc(F)ccc1Oc1nncnc1N1CC2(CCN(CC3CCC(c4ccccn4)CC3)CC2)C1)C(C)C (stereo not shown) [Compound 135, N-ethyl-5-fluoro-N-isopropyl-2-((5-(7-((4-(pyridin-2-yl)cyclohexyl)methyl)-2,7-diazaspiro[3.5]nonan-2-yl)-1,2,4-triazin-6-yl)oxy)benzamide]
[1]
  GI50: 22 nM
[2]
  IC50: 55.5 nM

## CCN(C(=O)c1cc(F)ccc1Oc1nncnc1N1CC2(CCN(Cc3ccc4c(c3)cc(C#N)n4CCO)CC2)C1)C(C)C [Compound 162]
[1]
  GI50: 30 nM
[2]
  IC50: 13.9 nM

## CCN(C(=O)c1cc(F)ccc1Oc1nncnc1N1CC2(CCN(CC3CCN(c4cc(OC)c(OC)nn4)CC3)CC2)C1)C(C)C [Compound 90]
[1]
  GI50: 2 nM
[2]
  IC50: 2.1 nM

## COc1cc(F)ccc1Oc1nncnc1N1CC2(CCN(Cc3ccc4c(cc(C#N)n4CCO)c3C)CC2)C1 [Compound 157]
[1]
  GI50: 252 nM
[2]
  IC50: 305 nM

## Cc1nc(-c2cc(F)ccc2Oc2nncnc2N2CC3(CCN(Cc4ccc5c(cc(C#N)n5CCO)c4C)CC3)C2)n(C(C)C)n1 [Compound 161]
[1]
  GI50: 22 nM
[2]
  IC50: 18.7 nM

## CCN(C(=O)c1cc(F)ccc1Oc1nncnc1N1CC2(CCN(CC3CCN(C(=O)CC#N)CC3)CC2)C1)C(C)C [Compound 13]
[1]
  GI50: 20 nM
[2]
  IC50: 14.5 nM

## CCN(C(=O)c1cc(F)ccc1Oc1nncnc1N1CC2(CCN(CC3CCN(C(=O)C4CC4)CC3)CC2)C1)C(C)C [Compound 1, 2-((5-(7-((1-(cyclopropanecarbonyl)piperidin-4-yl)methyl)-2,7-diazaspiro[3.5]nonan-2-yl)-1,2,4-triazin-6-yl)oxy)-N-ethyl-5-fluoro-N-isopropylbenzamide]
[1]
  GI50: 43 nM
[2]
  IC50: 13.6 nM

## CCN(C(=O)c1cc(F)ccc1Oc1nncnc1N1CC2(CCN(CC3CCN(c4ncccc4C(N)=O)CC3)CC2)C1)C(C)C [Compound 54]
[1]
  GI50: 21 nM
[2]
  IC50: 15.8 nM

## CCN(C(=O)c1cc(F)ccc1Oc1nncnc1N1CC(C2(N(C)Cc3cc(C#N)n(C)n3)CC2)C1)C(C)C [Compound 146, 2-((5-(3-(1-(((5-cyano-1-methyl-1H-pyrazol-3-yl)methyl)(methyl)amino)cyclopropyl)azetidin-1-yl)-1,2,4-triazin-6-yl)oxy)-N-ethyl-5-fluoro-N-isopropylbenzamide]
[1]
  GI50: 986 nM
[2]
  IC50: > 1000 nM

## CCN(C(=O)c1cc(F)ccc1Oc1nncnc1N1CC2(CCN(Cc3ccc4[nH]c(C#N)c(C5=CCOCC5)c4c3C)CC2)C1)C(C)C [Compound 131, 2-((5-(7-((2-cyano-3-(3,6-dihydro-2H-pyran-4-yl)-4-methyl-1H-indol-5-yl)methyl)-2,7-diazaspiro[3.5]nonan-2-yl)-1,2,4-triazin-6-yl)oxy)-N-ethyl-5-fluoro-N-isopropylbenzamide]
[1]
  GI50: 18 nM
[2]
  IC50: 18 nM

## CCN(C(=O)c1cc(F)ccc1Oc1nncnc1N1CC2(CCN(CC3CCN(c4ncccn4)CC3)CC2)C1)C(C)C [Compound 78]
[1]
  GI50: 20 nM
[2]
  IC50: 28.8 nM

## CCN(C(=O)c1cc(F)ccc1Oc1nncnc1N1CC2(CCN(CC3CCN(c4ccc(C#N)cc4)CC3)CC2)C1)C(C)C [Compound 51]
[1]
  GI50: 9 nM
[2]
  IC50: 6.5 nM

## CCN(C(=O)c1cc(F)ccc1Oc1nncnc1N1CC2(CCN(CC3CCN(S(C)(=O)=O)CC3)CC2)C1)C(C)C [Compound 22]
[1]
  GI50: 87 nM
[2]
  IC50: 112 nM

## CCN(C(=O)c1cc(F)ccc1Oc1nncnc1N1CC2(CCN(CC3CCN(c4ccnc(C(C)(C)O)c4)CC3)CC2)C1)C(C)C [Compound 120]
[1]
  GI50: 36 nM
[2]
  IC50: 15.2 nM

## CCN(C(=O)c1cc(F)ccc1Oc1nncnc1N1CC2(CCN(CC3CCN(c4cc(OC)c(OC)nn4)CC3)C2)C1)C(C)C [Compound 93]
[1]
  GI50: 2 nM
[2]
  IC50: 0.6 nM

## CCN(C(=O)c1cc(F)ccc1Oc1nncnc1N1CC2(CCN(CC3CCN(CC(O)C(N)=O)CC3)CC2)C1)C(C)C (stereo not shown) [Compound 147, 2-((5-(7-((1-(3-amino-2-hydroxy-3-oxopropyl)piperidin-4-yl)methyl)-2,7-diazaspiro[3.5]nonan-2-yl)-1,2,4-triazin-6-yl)oxy)-N-ethyl-5-fluoro-N-isopropylbenzamide]
[1]
  GI50: 1390 nM
[2]
  IC50: 116 nM

## CCN(C(=O)c1cc(F)ccc1Oc1nncnc1N1CC(C2(N(C)Cc3cc(C(N)=O)n(C)n3)CC2)C1)C(C)C [Compound 145, 3-(((1-(1-(6-(2-(ethyl(isopropyl)carbamoyl)-4-fluorophenoxy)-1,2,4-triazin-5-yl)azetidin-3-yl)cyclopropyl)(methyl)amino)methyl)-1-methyl-1H-pyrazole-5-carboxamide]
[1]
  GI50: > 3300 nM
[2]
  IC50: > 1000 nM

## CCN(C(=O)c1cc(F)ccc1Oc1nncnc1N1CC2(CCN(CC3CCN(c4cnnc(OC)c4)CC3)CC2)C1)C(C)C [Compound 109]
[1]
  GI50: 6 nM
[2]
  IC50: 7.4 nM

## CCN(C(=O)c1cc(F)ccc1Oc1nncnc1N1CC2(CCN(CC3CCN(C(=O)c4ccccn4)CC3)CC2)C1)C(C)C [Compound 15]
[1]
  GI50: 44 nM
[2]
  IC50: 41.8 nM

## CCN(C(=O)c1cc(F)ccc1Oc1nncnc1N1CC2(CCN(CC3CCN(c4cc(OC)c(OC)cn4)CC3)CC2)C1)C(C)C [Compound 110]
[1]
  GI50: 3 nM
[2]
  IC50: 0.7 nM

## CCN(C(=O)c1cc(F)ccc1Oc1nncnc1N1CCC(C2(N(Cc3ccc4[nH]c(C#N)cc4c3C)C(C)C)CC2)C1)C(C)C (stereo not shown) [Compound 143]
[1]
  GI50: 2950 nM
[2]
  IC50: > 1000 nM

## CCN(C(=O)c1cc(F)ccc1Oc1nncnc1N1CC2(CCN(CC3CCN(c4ccc(C#N)cn4)CC3(C)C)CC2)C1)C(C)C (stereo not shown) [Compound 126]
[1]
  GI50: 27 nM
[2]
  IC50: 14.6 nM

## CCN(C(=O)c1cc(F)ccc1Oc1nncnc1N1CC2(CCN(CC3CCN(C(=O)C4COC4)CC3)CC2)C1)C(C)C [Compound 5]
[1]
  GI50: 58 nM
[2]
  IC50: 21.3 nM

## CCN(C(=O)c1cc(F)ccc1Oc1nncnc1N1CC2(CCN(CC3CCN(C(=O)C(C)O)CC3)CC2)C1)C(C)C (stereo not shown) [Compound 10]
[1]
  GI50: 187 nM
[2]
  IC50: 41.7 nM

## C=CC(=O)Nc1cccc(N2CC3(CCC(CN4CCC5(CC4)CN(c4ncnnc4Oc4ccc(F)cc4C(=O)N(CC)C(C)C)C5)CC3)C2)c1 [Compound 181]
[1]
  GI50: 7 nM
[2]
  IC50: 25.5 nM

## CCN(C(=O)c1cc(F)ccc1Oc1nncnc1N1CC2(CCN(CC3CCN(c4cnc(OC)c(OC)c4)CC3)CC2)C1)C(C)C [Compound 111]
[1]
  GI50: 8 nM
[2]
  IC50: 5.2 nM

## CCN(C(=O)c1cc(F)ccc1Oc1nncnc1N1CCC(C2(N(C)Cc3ccc4[nH]c(C#N)cc4c3C)CC2)C1)C(C)C (stereo not shown) [Compound 142]
[1]
  GI50: 257 nM
[2]
  IC50: 124 nM

## CCN(C(=O)c1cc(F)ccc1Oc1nncnc1N1CC2(CCN(CC3CCN(c4ccc5nccn5n4)CC3)CC2)C1)C(C)C [Compound 43]
[1]
  GI50: 13 nM
[2]
  IC50: 6.4 nM

## CCN(C(=O)c1cc(F)ccc1Oc1nncnc1N1CC2(CCN(CC3CCN(C(=O)C4(OC)CC4)CC3)CC2)C1)C(C)C [Compound 8]
[1]
  GI50: 86 nM
[2]
  IC50: 34.6 nM
